Tests used:
[1] = test system: HCT116 MTAP-deleted cell lines; test: Cell viability assay (CellTitre-Glo), HCT116 MTAP-deleted; assay type: cell-based; conditions: for CC50: Homo sapiens, HCT-116, 168 h, HCT116 MTAP-deleted cells, 7 days of treatment, CTG luminescence, read-out: MTAP^del HCT116 CC50; for Selectivity: WT HCT116 CC50 versus MTAP^del HCT116 CC50
Procedure: (§1) Control compounds were analyzed in parallel each time for quality control.
(§2) In Brief, on Day-1, a serial dilution of stock compounds in DMSO was performed using BioMek liquid handlers and dispensed using Echo acoustic dispenser into 384 well plates. Both tool compounds and sample compounds were spotted in the same plate for a dose response of PRMT5 inhibitors. Compound plates were stored as frozen until the cells were ready for seeding.
(§3) On Day 0, 100 HCT WT or HCT116 MTAP-deleted cells were seeded in compound-containing 384 well plates (50 μl per well) in RPMI 1640 media supplemented with 10% heat inactivated fetal bovine serum, Glutamax and penicillin streptomycin using EL460 liquid dispenser 5 μl cassette (BioTek, part no. 7170011). After equilibrating the plate in room temperature, the cells were incubated for 7 days inside the sealed incubator set at 37° C. with […] and 5% CO2.
(§4) On Day 7, the viability of cells was measured using a CTG assay kit (CellTitre-Glo; Promega cat no. G7573). Shortly, 40 μl per well of luminescent cell viability assay reagent were dispensed using EL460 liquid dispenser 5 μl cassette. CTG luminescence signal was measured using an EnVision plate reader (PerkinElmer) in accordance with manufacturer's instruction. The CC50 values for each compound after 7 days of treatment were calculated using 4 parameter non-linear logistical curve fit.

[2] = Cell viability assay (CellTitre-Glo), HCT116 WT; assay type: cell-based; conditions: human; HCT116 WT cells, 7 days of treatment, CTG luminescence
Procedure: as §1, §2, §3, §4

[3] = MDR1/BCRP assay: permeability in cPgp-KO-MDCK-WT cells; assay type: in vitro ADME; conditions: dog, test compounds at 1 μM, 2-hour time point, pH 7.4
Procedure: (§5) cPgp-KO-MDCK-WT, cPgp-KO-MDR1-KI, and cPgp-KO—BCRP—KI cells (all from Sigma) were cultured in Dulbecco's Modification of Eagle's Medium (DMEM) with 4.5 g/L glucose, sodium pyruvate, and GlutaMAX (Gibco) supplemented with 1% Pen/Strep and 10% fetal bovine serum. The cells were maintained in an incubator at 37° C., 90% humidity, and 5% CO2 until reaching confluence over 5 days in 96-well transwell plates. Experiments were conducted using an HBSS donor buffer (Invitrogen) containing 10 mM HEPES and 15 mM glucose, adjusted to pH 7.4. The receiver well contained HBSS buffer supplemented with 1% BSA, 10 mM HEPES, and 15 mM glucose, and the pH was adjusted to 7.4. TEER values were measured to assess membrane integrity after an initial equilibration with BSA-free transport buffer for 15 minutes. The experiment was started by adding dosing solutions containing test compounds at 1 μM. Cells were dosed on the apical (A) side or basolateral (B) side at 100 μl and 200 μl, respectively, to determine forward (A to B) and reverse (B to A) permeability. At the 2-hour time point, 50 μl samples were collected from the receiver compartment. Each compound was tested in 2 separate replicate wells for each condition. All samples were immediately collected into plates, and 50 μL of acetonitrile was added. Subsequently, 350 μl of 30:70 methanol: acetonitrile containing internal standard was added to precipitate proteins and stabilize the test compounds. To test for non-specific binding and compound instability, the total amount of the drug was quantified at the end of the experiment and compared to the material present in the original dosing solution as a percentage of the recovery. All samples were analyzed by LC-MS/MS using electrospray ionization.
(§6) The apparent permeability, Papp, and % recovery were calculated as follows: […]

BCRP = target: T1, BCRP (Homo sapiens, UniProt Q9UNQ0); test: MDR1/BCRP assay: efflux ratio in cPgp-KO-BCRP-KI cells; assay type: in vitro ADME; conditions: dog, efflux ratio Papp (B-to-A)/Papp (A-to-B), 2-hour time point, read-out: cPgp-KO-BCRP-KI (ER)
T1 construct: host or cells: MDCK cells with canine Pgp knocked out and BCRP knocked in (cPgp-KO-BCRP-KI)
T1 sequence (Q9UNQ0 1-655): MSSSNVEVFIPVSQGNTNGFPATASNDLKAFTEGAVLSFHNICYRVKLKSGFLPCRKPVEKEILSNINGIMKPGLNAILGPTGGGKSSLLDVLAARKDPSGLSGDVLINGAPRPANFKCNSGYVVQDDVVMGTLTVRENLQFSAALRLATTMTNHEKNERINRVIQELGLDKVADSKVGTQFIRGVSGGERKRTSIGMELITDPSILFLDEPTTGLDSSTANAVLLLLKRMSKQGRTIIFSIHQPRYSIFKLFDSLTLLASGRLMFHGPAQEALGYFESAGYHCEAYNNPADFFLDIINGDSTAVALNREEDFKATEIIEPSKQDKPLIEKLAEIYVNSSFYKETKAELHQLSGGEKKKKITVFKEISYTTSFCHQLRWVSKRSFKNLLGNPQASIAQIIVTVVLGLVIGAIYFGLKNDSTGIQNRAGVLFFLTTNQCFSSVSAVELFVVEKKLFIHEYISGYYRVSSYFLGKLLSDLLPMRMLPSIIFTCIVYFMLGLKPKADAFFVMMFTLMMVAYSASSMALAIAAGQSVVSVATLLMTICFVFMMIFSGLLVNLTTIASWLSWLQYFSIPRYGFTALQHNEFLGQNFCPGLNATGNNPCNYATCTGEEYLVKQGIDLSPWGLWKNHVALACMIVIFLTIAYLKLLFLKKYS
Procedure: as §5, §6

MDR1 = target: T2, MDR1 (Homo sapiens, UniProt P08183); test: MDR1/BCRP assay: efflux ratio in cPgp-KO-MDR1-KI cells; assay type: in vitro ADME; conditions: dog, MDCK-MDR1, efflux ratio Papp (B-to-A)/Papp (A-to-B), 2-hour time point, read-out: cPgp-KO-MDR1-KI (ER)
T2 construct: host or cells: MDCK cells with canine Pgp knocked out and MDR1 knocked in (cPgp-KO-MDR1-KI)
Procedure: as §5, §6

T2 sequence (P08183 whole entry): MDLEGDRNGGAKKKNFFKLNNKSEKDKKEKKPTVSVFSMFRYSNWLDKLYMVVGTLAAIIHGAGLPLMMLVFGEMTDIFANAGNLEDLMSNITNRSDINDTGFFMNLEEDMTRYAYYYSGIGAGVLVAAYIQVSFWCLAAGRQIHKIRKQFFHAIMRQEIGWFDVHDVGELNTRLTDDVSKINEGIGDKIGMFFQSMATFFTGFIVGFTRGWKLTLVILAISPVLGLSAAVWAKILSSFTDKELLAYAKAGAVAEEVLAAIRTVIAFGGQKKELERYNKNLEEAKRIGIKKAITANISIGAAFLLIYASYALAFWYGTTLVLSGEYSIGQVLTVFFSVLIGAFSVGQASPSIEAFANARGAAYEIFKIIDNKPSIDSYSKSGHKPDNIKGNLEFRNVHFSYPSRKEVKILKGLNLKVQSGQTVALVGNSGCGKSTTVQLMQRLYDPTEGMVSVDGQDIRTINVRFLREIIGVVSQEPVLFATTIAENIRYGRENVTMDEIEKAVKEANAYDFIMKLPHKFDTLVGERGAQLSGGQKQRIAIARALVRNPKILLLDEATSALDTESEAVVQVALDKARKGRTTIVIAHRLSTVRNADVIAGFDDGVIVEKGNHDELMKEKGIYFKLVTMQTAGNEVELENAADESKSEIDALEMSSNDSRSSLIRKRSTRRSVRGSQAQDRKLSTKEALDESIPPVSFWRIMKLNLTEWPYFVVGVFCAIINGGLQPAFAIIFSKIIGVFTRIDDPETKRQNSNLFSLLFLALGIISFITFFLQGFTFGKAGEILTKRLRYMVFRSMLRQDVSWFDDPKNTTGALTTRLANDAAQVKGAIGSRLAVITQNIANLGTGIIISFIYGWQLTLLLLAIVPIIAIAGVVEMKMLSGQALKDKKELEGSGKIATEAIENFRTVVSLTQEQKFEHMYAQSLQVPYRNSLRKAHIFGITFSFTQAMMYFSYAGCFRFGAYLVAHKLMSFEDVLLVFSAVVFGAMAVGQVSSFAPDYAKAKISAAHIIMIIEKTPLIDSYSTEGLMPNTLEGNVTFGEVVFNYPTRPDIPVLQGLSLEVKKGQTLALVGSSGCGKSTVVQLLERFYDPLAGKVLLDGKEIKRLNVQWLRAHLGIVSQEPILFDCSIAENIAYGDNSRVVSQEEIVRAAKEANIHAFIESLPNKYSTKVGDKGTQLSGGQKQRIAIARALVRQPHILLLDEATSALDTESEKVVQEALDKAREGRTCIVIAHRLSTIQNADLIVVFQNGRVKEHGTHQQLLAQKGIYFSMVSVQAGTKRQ

SMILES	CC50 [1]	Selectivity [1]	CC50 at 7 days [2]	Papp A→B at 2 h, 1 µM [3]	efflux ratio at 2 h, 1 μM (BCRP)	efflux ratio at 2 h, 1 μM (MDR1)
Cn1ncc2c(NC(=O)C(=O)N3CC[C@H]4C[C@@H]3c3c(F)cc(C(F)(F)F)cc3O4)cnc(N)c21 [Example Ca-11, N-(7-amino-1-methyl-1H-pyrazolo[3,4-c]pyridin-4-yl)-2-((2S,6R)-7-fluoro-9-(trifluoromethyl)-3,4-dihydro-2H-2,6-methanobenzo[b][1,5]oxazocin-5(6H)-yl)-2-oxoacetamide]	18 nM	115	2070 nM	10.7 ×10⁻⁶ cm/s	1.3	1.4
Cn1ncc2c(NC(=O)C(=O)N3CCC[C@@H]4Oc5cc(C(F)(F)F)ccc5[C@@H]43)cnc(N)c21 [Example Ca-2, N-(7-amino-1-methyl-11H-pyrazolo[3,4-c]pyridin-4-yl)-2-oxo-2-((4aS,9bS)-7-(trifluoromethyl)-3,4,4a,9b-tetrahydrobenzofuro[3,2-b]pyridin-1(2H)-yl)acetamide]	12 nM	78	935 nM	12.2 ×10⁻⁶ cm/s	0.7	0.8
Cn1ncc2c(NC(=O)C(=O)N3CCC[C@@H]4Oc5cc(Cl)ccc5[C@@H]43)cnc(N)c21 [Example Ca-7, N-(7-amino-1-methyl-1H-pyrazolo[3,4-c]pyridin-4-yl)-2-((4aS,9bS)-7-chloro-3,4,4a,9b-tetrahydrobenzofuro[3,2-b]pyridin-1(2H)-yl)-2-oxoacetamide]	16 nM	108	1700 nM	21.4 ×10⁻⁶ cm/s	1.1	
Cn1ncc2c(NC(=O)C(=O)N3CCC[C@@H]4Oc5cc(OC(F)F)c(F)cc5[C@@H]43)cnc(N)c21 (relative stereo) [Example Ca-9, cis-N-(7-amino-1-methyl-1H-pyrazolo[3,4-c]pyridin-4-yl)-2-(7-(difluoromethoxy)-8-fluoro-3,4,4a,9b-tetrahydrobenzofuro[3,2-b]pyridin-1(2H)-yl)-2-oxoacetamide]	34 nM	119	4100 nM	15.3 ×10⁻⁶ cm/s	1.6	1.8
Nc1ncc(NC(=O)C(=O)N2CCC[C@@H]3Oc4cc(C(F)(F)F)ccc4[C@@H]32)c2c1COC2 [Example Cc-1, N-(4-amino-1,3-dihydrofuro[3,4-c]pyridin-7-yl)-2-oxo-2-((4aS,9bS)-7-(trifluoromethyl)-3,4,4a,9b-tetrahydrobenzofuro[3,2-b]pyridin-1(2H)-yl)acetamide]	50 nM	38	1940 nM			
Cn1ncc2c(NC(=O)C(=O)N3CCC[C@@H]4Oc5cc(C(F)(F)F)cc(F)c5[C@@H]43)cnc(N)c21 [Example Ca-1, N-(7-amino-1-methyl-1H-pyrazolo[3,4-c]pyridin-4-yl)-2-((4aS,9bS)-9-fluoro-7-(trifluoromethyl)-3,4,4a,9b-tetrahydrobenzofuro[3,2-b]pyridin-1(2H)-yl)-2-oxoacetamide]	10 nM	103	1030 nM	12 ×10⁻⁶ cm/s	0.7	1
Cn1ncc2c(NC(=O)C(=O)N3CC[C@H]4C[C@@H]3c3ccc(OC(F)(F)F)cc3O4)cnc(N)c21 [Example Ca-4, N-(7-amino-1-methyl-1H-pyrazolo[3,4-c]pyridin-4-yl)-2-oxo-2-((2S,6R)-9-(trifluoromethoxy)-3,4-dihydro-2H-2,6-methanobenzo[b][1,5]oxazocin-5(6H)-yl)acetamide]	31 nM	102	3200 nM	26 ×10⁻⁶ cm/s	0.6	0.9
Nc1ncc(NC(=O)C(=O)N2CCC[C@@H]3Oc4cc(C(F)(F)F)cc(F)c4[C@@H]32)c2c1COC2 [Example Cc-2, N-(4-amino-1,3-dihydrofuro[3,4-c]pyridin-7-yl)-2-((4aS,9bS)-9-fluoro-7-(trifluoromethyl)-3,4,4a,9b-tetrahydrobenzofuro[3,2-b]pyridin-1(2H)-yl)-2-oxoacetamide]	51 nM	37	1910 nM			
C[C@@H]1CN(C(=O)C(=O)Nc2cnc(N)c3c2cnn3C)[C@H]2c3ccc(C(F)(F)F)cc3C[C@H]2O1 [Example Ca-10, N-(7-amino-1-methyl-1H-pyrazolo[3,4-c]pyridin-4-yl)-2-((2R,4aS,9aR)-2-methyl-7-(trifluoromethyl)-2,3,9,9a-tetrahydroindeno[2,1-b][1,4]oxazin-4(4aH)-yl)-2-oxoacetamide]	28 nM	96	2720 nM	17.7 ×10⁻⁶ cm/s	1.1	1
C[C@H]1CN(C(=O)C(=O)Nc2cnc(N)c3c2cnn3C)[C@H]2c3ccc(C(F)(F)F)cc3C[C@H]2O1 [Example Ca-3, N-(7-amino-1-methyl-11H-pyrazolo[3,4-c]pyridin-4-yl)-2-((2S,4aS,9aR)-2-methyl-7-(trifluoromethyl)-2,3,9,9a-tetrahydroindeno[2,1-b][1,4]oxazin-4(4aH)-yl)-2-oxoacetamide]	38 nM	77	2940 nM	12.6 ×10⁻⁶ cm/s	0.7	1.1
[2H]C([2H])([2H])n1ncc2c(NC(=O)C(=O)N3CCC[C@@H]4Oc5cc(C(F)(F)F)cc(F)c5[C@@H]43)cnc(N)c21 [Example Cb-1, N-(7-amino-1-(methyl-d3)-1H-pyrazolo[3,4-c]pyridin-4-yl)-2-((4aS,9bS)-9-fluoro-7-(trifluoromethyl)-3,4,4a,9b-tetrahydrobenzofuro[3,2-b]pyridin-1(2H)-yl)-2-oxoacetamide]	12 nM	99	1240 nM			
